Source: paper PMC11477000, “Enantioselective Binding of Proton Pump Inhibitors to Alpha1-Acid Glycoprotein and Human Serum Albumin—A Chromatographic, Spectroscopic, and In Silico Study” (International Journal of Molecular Sciences, 2024)

What was measured:
[1] = system: α1-acid glycoprotein (AGP); test: HPLC on AGP-based chiral stationary phase (ChromTech Chiral-AGP column); format: binding, human; conditions: 10 mM pH 7 phosphate buffer, 25 °C
Procedure: HPLC using a protein-based chiral stationary phase is a fully automated method for obtaining rapid information about the binding of compounds to the respective proteins. Enantioseparation occurs in the case of unequal binding constants of the individual enantiomers to the immobilized proteins, thus allowing enantioselective binding to be characterized even when a racemic mixture was injected. As a preliminary step, the enantiospecific binding was investigated on columns containing AGP and HSA in various alcohol:buffer mixtures. A pH 7 phosphate buffer was employed as the aqueous part of the mobile phase, while for the organic part, three different alcohols were evaluated. […]
(§1) Chromatographic measurements were carried out on two separate HPLC systems. The AGP binding study was performed on a Waters 2695e chromatographic system paired with a Waters 2996 PDA detector, controlled by Empower 3 FR5 (Waters Corp., Milford, MA, USA), while the HSA binding study was performed on an Agilent 1100 HPLC system, consisting of an inline degasser (G1322A), a quaternary pump (G1311A), an automatic injector (G1329A) paired with sample thermostat (G1330A), a column thermostat (G1316A), and a diode array detector (G1315A) with Agilent Chemstation B04.03-SP2 software (Agilent, Bronnwald, Germany). For the binding studies, two protein-based chiral stationary phases were utilized. The chromatographic binding study for AGP was conducted on a ChromTech Chiral-AGP column (150 mm × 4.0 mm; ChromTech Ltd., Congleton, UK), while the binding study for HSA was performed on a Daicel Chiralpak HSA column (50 mm × 4.0 mm; Daicel Corp., Osaka, Japan). The detection wavelength was 210 nm for all measurements. The stock solutions of PPIs were prepared at a concentration of 1 mg/mL in MeOH. Subsequent dilutions were prepared using water. The injected samples were mixed and diluted from the stock solutions. The final concentration for the eutomer was 0.2 mg/mL, and for the distomer, it was 0.1 mg/mL. A volume of 2 μL was injected. To mitigate the instability of PPIs in aqueous solutions, the samples were kept at a temperature of 4 °C.

[2] = biological target: T1, human serum albumin (HSA) (Homo sapiens, UniProt P02768); test: Displacement chromatography on HSA column with warfarin and ibuprofen as competitors; format: binding; conditions: IPA:10 mM pH 7 phosphate buffer 1:99, 25 °C
Procedure: For identification of the binding site of HSA, a displacement chromatography and fluorescence displacement study were performed. In the case of chromatography, to the mobile phase, increasing concentrations of the competitors, warfarin and ibuprofen, that are known to bind to specific binding sites on HSA, Sudlow site I and Sudlow site II, respectively, were added. In the case of the fluorescence displacement study, the fluorescence quenching data of the PPI-HSA system in the presence of warfarin and ibuprofen were investigated.
(Chromatographic parameter: Column temperature: 25 °C,
mobile phase: IPA : 10 mM pH 7 sodium phosphate buffer 1:99, flow rate: 0.7 mL/min, detection

[3] = biological target: T1, human serum albumin (HSA); test: HPLC on HSA-based chiral stationary phase (Daicel Chiralpak HSA column); format: binding; conditions: HSA column, 10 mM pH 7 phosphate buffer, 25 °C
Procedure: HPLC using a protein-based chiral stationary phase is a fully automated method for obtaining rapid information about the binding of compounds to the respective proteins. Enantioseparation occurs in the case of unequal binding constants of the individual enantiomers to the immobilized proteins, thus allowing enantioselective binding to be characterized even when a racemic mixture was injected. As a preliminary step, the enantiospecific binding was investigated on columns containing AGP and HSA in various alcohol:buffer mixtures. A pH 7 phosphate buffer was employed as the aqueous part of the mobile phase, while for the organic part, three different alcohols were evaluated.
In the following step, we investigated the effect of changing some other chromatographic conditions on the protein binding. The pH of the aqueous phase influenced the protonation state of both the analyte and the proteins. It should be noted that the pH tolerance of protein-based columns is narrow due to the possible denaturation of proteins. Taking into account the guidelines of the manufacturer, three different pH values were investigated (pH 6, 6.5, and 7) at a 95:5 (v/v%) buffer:IPA eluents ratio [49]. The buffer was uniformly 10 mM phosphate. […] The effect of different buffer constituents was also evaluated. In addition to phosphate buffer, ammonium acetate, ammonium bicarbonate, and sodium citrate were tested and compared under the same conditions.
as §1

T1 sequence (P02768 25-609): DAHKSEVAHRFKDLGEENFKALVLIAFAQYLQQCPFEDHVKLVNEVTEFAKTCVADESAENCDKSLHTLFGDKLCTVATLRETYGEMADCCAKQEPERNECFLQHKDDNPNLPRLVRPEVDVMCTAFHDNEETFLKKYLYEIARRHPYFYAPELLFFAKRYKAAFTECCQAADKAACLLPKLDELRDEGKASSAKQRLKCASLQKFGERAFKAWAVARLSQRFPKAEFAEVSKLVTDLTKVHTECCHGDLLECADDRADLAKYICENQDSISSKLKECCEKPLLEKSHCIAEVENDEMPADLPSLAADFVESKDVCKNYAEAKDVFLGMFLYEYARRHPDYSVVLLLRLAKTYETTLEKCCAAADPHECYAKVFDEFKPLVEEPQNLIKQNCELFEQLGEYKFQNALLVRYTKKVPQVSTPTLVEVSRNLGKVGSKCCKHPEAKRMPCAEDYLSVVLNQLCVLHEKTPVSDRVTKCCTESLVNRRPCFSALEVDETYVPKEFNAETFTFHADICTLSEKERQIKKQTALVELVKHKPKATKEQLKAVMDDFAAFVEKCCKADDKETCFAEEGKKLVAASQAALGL

COCCCOc1ccnc(C[S+]([O-])c2nc3ccccc3[nH]2)c1C (stereo not shown) [Rabeprazole, rabeprazole]
k1 retention factor (first-eluting enantiomer) ([1]; 2.5% IPA): 14.89 | k2 retention factor (second-eluting enantiomer) ([1]; 2.5% IPA): 21.66 | k1 retention factor (first-eluting enantiomer) ([1]; 5% EtOH): 13.04 | k2 retention factor (second-eluting enantiomer) ([1]; 5% EtOH): 20.84 | k1 retention factor (first-eluting enantiomer) ([1]; 5% IPA): 6.68 | k2 retention factor (second-eluting enantiomer) ([1]; 5% IPA): 7.89 | k1 retention factor (first-eluting enantiomer) ([1]; 5% MeOH): 20.89 | k2 retention factor (second-eluting enantiomer) ([1]; 5% MeOH): 42.82 | k1 retention factor (first-eluting enantiomer) ([1]; 7.5% EtOH): 7.21 | k2 retention factor (second-eluting enantiomer) ([1]; 7.5% EtOH): 10.50 | k2 retention factor (second-eluting enantiomer) ([1]; 7.5% IPA): 3.90 | k1 retention factor (first-eluting enantiomer) ([1]; 7.5% MeOH): 12.90 | k2 retention factor (second-eluting enantiomer) ([1]; 7.5% MeOH): 26.14 | k1 retention factor (first-eluting enantiomer) ([1]; 10% EtOH): 4.39 | k2 retention factor (second-eluting enantiomer) ([1]; 10% EtOH): 5.89 | k1 retention factor (first-eluting enantiomer) ([1]; 10% IPA): 2.47 | k2 retention factor (second-eluting enantiomer) ([1]; 10% IPA): 2.47 | k1 retention factor (first-eluting enantiomer) ([1]; 10% MeOH): 8.63 | k2 retention factor (second-eluting enantiomer) ([1]; 10% MeOH): 16.71 | k1 retention factor (first-eluting enantiomer) ([1]; 12.5% IPA): 1.72 | k2 retention factor (second-eluting enantiomer) ([1]; 12.5% IPA): 1.72 | k1 retention factor (first-eluting enantiomer) ([1]; 15% EtOH): 2.11 | k2 retention factor (second-eluting enantiomer) ([1]; 15% EtOH): 2.48 | k1 retention factor (first-eluting enantiomer) ([1]; 15% IPA): 1.27 | k2 retention factor (second-eluting enantiomer) ([1]; 15% IPA): 1.27 | k1 retention factor (first-eluting enantiomer) ([1]; 15% MeOH): 5.97 | k2 retention factor (second-eluting enantiomer) ([1]; 15% MeOH): 11.00 | k retention factor ([2]; ibuprofen 0 mM): 7.21 | k retention factor ([2]; ibuprofen 0.01 mM): 6.67 | k retention factor ([2]; ibuprofen 0.05 mM): 5.87 | k retention factor ([2]; ibuprofen 0.1 mM): 5.05 | k retention factor ([2]; warfarin 0 mM): 7.21 | k retention factor ([2]; warfarin 0.01 mM): 5.81 | k retention factor ([2]; warfarin 0.05 mM): 4.98 | k retention factor ([2]; warfarin 0.1 mM): 4.73 | k1 retention factor (first-eluting enantiomer) ([3]; 1% EtOH): 6.16 | k2 retention factor (second-eluting enantiomer) ([3]; 1% EtOH): 6.16 | k1 retention factor (first-eluting enantiomer) ([3]; 1% IPA): 7.21 | k2 retention factor (second-eluting enantiomer) ([3]; 1% IPA): 7.21 | k1 retention factor (first-eluting enantiomer) ([3]; 1% MeOH): 6.61 | k2 retention factor (second-eluting enantiomer) ([3]; 1% MeOH): 6.61 | k1 retention factor (first-eluting enantiomer) ([3]; 2.5% EtOH): 3.97 | k2 retention factor (second-eluting enantiomer) ([3]; 2.5% EtOH): 3.97 | k1 retention factor (first-eluting enantiomer) ([3]; 2.5% IPA): 5.45 | k2 retention factor (second-eluting enantiomer) ([3]; 2.5% IPA): 5.45 | k1 retention factor (first-eluting enantiomer) ([3]; 2.5% MeOH): 5.08 | k2 retention factor (second-eluting enantiomer) ([3]; 2.5% MeOH): 5.08 | k1 retention factor (first-eluting enantiomer) ([3]; 5% EtOH): 2.87 | k2 retention factor (second-eluting enantiomer) ([3]; 5% EtOH): 2.87 | k1 retention factor (first-eluting enantiomer) ([3]; 5% IPA): 3.32 | k2 retention factor (second-eluting enantiomer) ([3]; 5% IPA): 3.32 | k1 retention factor (first-eluting enantiomer) ([3]; 5% MeOH): 3.68 | k2 retention factor (second-eluting enantiomer) ([3]; 5% MeOH): 3.68 | k1 retention factor (first-eluting enantiomer) ([3]; 7.5% EtOH): 2.16 | k2 retention factor (second-eluting enantiomer) ([3]; 7.5% EtOH): 2.16 | k1 retention factor (first-eluting enantiomer) ([3]; 7.5% IPA): 2.37 | k2 retention factor (second-eluting enantiomer) ([3]; 7.5% IPA): 2.37 | k1 retention factor (first-eluting enantiomer) ([3]; 7.5% MeOH): 2.95 | k2 retention factor (second-eluting enantiomer) ([3]; 7.5% MeOH): 2.95 | k1 retention factor (first-eluting enantiomer) ([3]; 10% EtOH): 1.66 | k2 retention factor (second-eluting enantiomer) ([3]; 10% EtOH): 1.66 | k1 retention factor (first-eluting enantiomer) ([3]; 10% IPA): 1.79 | k2 retention factor (second-eluting enantiomer) ([3]; 10% IPA): 1.79 | k1 retention factor (first-eluting enantiomer) ([3]; 10% MeOH): 2.34 | k2 retention factor (second-eluting enantiomer) ([3]; 10% MeOH): 2.34 | k1 retention factor (first-eluting enantiomer) ([3]; 12.5% IPA): 1.37 | k2 retention factor (second-eluting enantiomer) ([3]; 12.5% IPA): 1.37
